Consider 3 compounds from BindingDB's records for doi:10.1016/S0960-894X(00)80067-0 (1994).

pIC50: −log10 of the molar value.

By pIC50 is commonly meant −log10 of the IC50, conventionally taken in molar units.

The test in a line: Compound was tested for inhibition of partially purified squalene epoxidase.
For the compound `CCN(Cc1cccc(OCc2cc(-c3cccs3)cs2)c1)c1cc(O)cc(C2(C(F)(F)F)N=N2)c1` [3-{[3-([2,3']Bithiophenyl-5'-ylmethoxy)-benzyl]-ethyl-amino}-5-(3-trifluoromethyl-3H-diazirin-3-yl)-phenol], the pIC50 was 3.30. `CCN(Cc1cccc(OCc2cc(-c3cccs3)cs2)c1)c1ccc(C(=O)c2ccc(CCl)cc2)cc1` [(4-{[3-([2,3']Bithiophenyl-5'-ylmethoxy)-benzyl]-ethyl-amino}-phenyl)-(4-chloromethyl-phenyl)-methanone]: the negative logarithm of the IC50 (pIC50) is 3.30. `CCN(CC=CC#CC(C)(C)C)Cc1cccc(OCc2cc(CO)cc(C3(C(F)(F)F)N=N3)c2)c1` [[3-(3-{[((E)-6,6-Dimethyl-hept-2-en-4-ynyl)-ethyl-amino]-methyl}-phenoxymethyl)-5-(3-trifluoromethyl-3H-diazirin-3-yl)-phenyl]-methanol] had a pIC50 of 3.30.
